Among the data in BindingDB's records for doi:10.1021/acschembio.6b00709 (Technical University of Munich, 2016) are Kd and IC50 values, retold here.

The target in test [1] is T1, Ephrin type-A receptor 2 [596-900] (Homo sapiens, UniProt P29317).
T1 construct: 596-900
T1 sequence (P29317 whole entry): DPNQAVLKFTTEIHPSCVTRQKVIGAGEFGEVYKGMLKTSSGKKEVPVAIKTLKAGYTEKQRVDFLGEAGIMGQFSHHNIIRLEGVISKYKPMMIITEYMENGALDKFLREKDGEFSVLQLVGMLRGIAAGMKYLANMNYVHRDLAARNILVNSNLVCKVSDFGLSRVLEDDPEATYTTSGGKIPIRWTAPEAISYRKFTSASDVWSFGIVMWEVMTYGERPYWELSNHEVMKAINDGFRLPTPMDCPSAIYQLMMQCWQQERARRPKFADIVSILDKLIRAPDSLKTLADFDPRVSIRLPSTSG
Briefly: Kinobeads Competition Assay.

Test [2] concerns the target T1, Ephrin type-A receptor 2 [596-900]. Nature of the test: HotSpot Kinase Activity Assay. An excerpt:
Refer to Reaction Biology Corps.

In general, Kd refers to the constant that tells how readily two partners part at equilibrium. As a reminder, the IC50 is the concentration that inhibits the measured activity by half. Lower therefore signals higher potency. `Cc1ccc(NC(=O)c2ccc(CN3CC[C@H](N(C)C)C3)c(C(F)(F)F)c2)cc1Nc1ncc(-c2cncnc2)cn1` [4-[[(3S)-3-(dimethylamino)pyrrolidin-1-yl]methyl]-N-[4-methyl-3-[(5-pyrimidin-5-ylpyrimidin-2-yl)amino]phenyl]-3-(trifluoromethyl)benzamide] gave a Kd in test [1] of 192 nM. The same molecule returned an IC50 in test [2] of 17 nM.
The corresponding values for `CCS(=O)(=O)c1cccc(-c2cc(C(=O)NC3CCN(C)CC3)c(C)c3[nH]c4ncc(C)cc4c23)c1` [5-(3-ethylsulfonylphenyl)-3,8-dimethyl-N-(1-methylpiperidin-4-yl)-9H-pyrido[2,3-b]indole-7-carboxamide] are 198 nM and 4.8 nM.
The like results for `CC(C)c1cc(CNc2nc(Nc3cc(C4CC4)[nH]n3)cc(N3CCN(C)CC3)n2)on1` [4-N-(5-cyclopropyl-1H-pyrazol-3-yl)-6-(4-methylpiperazin-1-yl)-2-N-[(3-propan-2-yl-1,2-oxazol-5-yl)methyl]pyrimidine-2,4-diamine] were, in that order, 19 nM and 4 nM.
`C[C@@H](NC(=O)c1ncnc(N)c1Cl)c1ncc(C(=O)Nc2cc(C(F)(F)F)c(Cl)cn2)s1` [MLN-2480] displayed a Kd in test [1] of 484 nM.
Still for that read-out and setting: the same measure for `CN1CCN(CCOc2cc(OC3CCOCC3)c3c(Nc4c(Cl)ccc5c4OCO5)ncnc3c2)CC1`: 338 nM.
Molecule `COc1cc(N2CCC(N3CCN(C)CC3)CC2)ccc1Nc1ncnc(Nc2ccccc2S(=O)(=O)C(C)C)n1` [ASP-3026] came in with a Kd in test [1] of 640 nM. Against the preceding molecule, the Kd is about 1.9-fold higher.
In the case of `COc1cc2c(Nc3ccc(Cl)c(Cl)c3F)ncnc2cc1OCC1C[C@@H]2CN(C)C[C@@H]2C1` (stereo partly drawn) [7-[[(3aS,6aR)-2-methyl-3,3a,4,5,6,6a-hexahydro-1H-cyclopenta[c]pyrrol-5-yl]methoxy]-N-(3,4-dichloro-2-fluorophenyl)-6-methoxyquinazolin-4-amine], the affinity in test [1], expressed as Kd, was 458 nM.
In test [1], `CNC(=O)c1nn(C)c2c1C(C)(C)Cc1cnc(Nc3ccc(N4CCN(C)CC4)cc3)nc1-2` [Milciclib] yielded a Kd of 672 nM.
As for `COc1cc(Nc2ncc3c(n2)-c2ccc(Cl)cc2C(c2c(F)cccc2OC)=NC3)ccc1C(=O)O` [Alisertib], in test [1], the Kd turned out to be 187 nM. The same molecule had an IC50 in test [2] of 48 nM.
Take `COc1cc2nccc(Oc3ccc(NC(=O)Nc4cc(C)on4)c(Cl)c3)c2cc1OC` [Tivozanib]: in test [1], binding was put at a Kd of 259 nM.
With `COc1cccc(Nc2ncnn3ccc(CN4CC[C@@H](N)[C@H](O)C4)c23)c1` [BMS-690514], the Kd in test [1] was determined as 961 nM. Against the preceding molecule, the Kd is about 3.7-fold higher.
`CNC(=O)c1cc(Oc2ccc(NC(=O)Nc3ccc(Cl)c(C(F)(F)F)c3)c(F)c2)ccn1` yielded a Kd in test [1] of 869 nM.
